Assay results: patent US12077503B2, “Substituted cyclic amides and their use as herbicides” (FMC CORPORATION, priority 2015, dated 2024)

Tests used:
Format in all cases: in vivo
[1] = system: barnyardgrass (Echinochloa crus-galli); experiment: Test G Pre-Emergence Protocol; conditions: Echinochloa crus-galli, pre-emergence, 312 h, evaluated after 13 days; for pest or weed control at 15.625 g/ha: 15.625 g ai/ha, read-out: Barnyard grass damage rating (100=total damage to plant; 0=no damage to plant); for pest or weed control at 62.5 g/ha: 62.5 g ai/ha, 100=total damage to plant, 0=no damage to plant, read-out: plant damage rating, Barnyardgrass; for pest or weed control at 250 g/ha: 250 g ai/ha, read-out: Barnyardgrass damage rating (100=total damage to plant; 0=no damage to plant)
Outline: (§1)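 Pots of seeds in standard soil were grown for one day in a glasshouse (24/16 °C day/night, 14 h light, 65% humidity), then sprayed with compound in acetone/water 50:50 with 0.5% Tween 20 at 15.625, 62.5 or 250 g/ha. Damage was scored after 13 days on a 0 (none) to 100 (total) scale.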

[2] = system: corn (Zea mays); experiment: Test G Pre-Emergence Protocol; conditions: Zea mays, pre-emergence, 312 h, evaluated after 13 days; for plant injury at 15.625 g/ha: 15.625 g ai/ha; for plant injury at 15.625 g/ha / plant injury at 250 g/ha: read-out: Corn damage rating (100=total damage to plant; 0=no damage to plant); for plant injury at 62.5 g/ha: 62.5 g ai/ha, 100=total damage to plant, 0=no damage to plant, read-out: plant damage rating, Corn; for plant injury at 250 g/ha: 250 g ai/ha
Outline: as §1

[3] = system: giant foxtail (Setaria faberi); experiment: Test G Pre-Emergence Protocol; conditions: Setaria faberi, pre-emergence, 312 h, evaluated after 13 days; for pest or weed control at 15.625 g/ha: 15.625 g ai/ha; for pest or weed control at 15.625 g/ha / pest or weed control at 250 g/ha: read-out: Foxtail, Giant damage rating (100=total damage to plant; 0=no damage to plant); for pest or weed control at 62.5 g/ha: 62.5 g ai/ha, 100=total damage to plant, 0=no damage to plant, read-out: plant damage rating, Foxtail, Giant; for pest or weed control at 250 g/ha: 250 g ai/ha
Outline: as §1

[4] = system: ivy-leaved morning glory (Ipomoea hederacea); experiment: Test G Pre-Emergence Protocol; conditions: Ipomoea, pre-emergence, 312 h, evaluated after 13 days; for pest or weed control at 15.625 g/ha: 15.625 g ai/ha, read-out: Morning-glory, Ivy-leaved damage rating (100=total damage to plant; 0=no damage to plant); for pest or weed control at 62.5 g/ha: 62.5 g ai/ha, 100=total damage to plant, 0=no damage to plant, read-out: plant damage rating, Morningglory, Ivy-leaved; for pest or weed control at 250 g/ha: 250 g ai/ha, read-out: Morningglory, Ivy-leaved damage rating (100=total damage to plant; 0=no damage to plant)
Outline: as §1

[5] = system: redroot pigweed (Amaranthus retroflexus); experiment: Test G Pre-Emergence Protocol; conditions: Amaranthus retroflexus, pre-emergence, 312 h, evaluated after 13 days; for pest or weed control at 15.625 g/ha: 15.625 g ai/ha; for pest or weed control at 15.625 g/ha / pest or weed control at 250 g/ha: read-out: Pigweed, Redroot damage rating (100=total damage to plant; 0=no damage to plant); for pest or weed control at 62.5 g/ha: 62.5 g ai/ha, 100=total damage to plant, 0=no damage to plant, read-out: plant damage rating, Pigweed, Redroot; for pest or weed control at 250 g/ha: 250 g ai/ha
Outline: as §1

[6] = system: velvetleaf (Abutilon theophrasti); experiment: Test G Pre-Emergence Protocol; conditions: Abutilon theophrasti, pre-emergence, 312 h, evaluated after 13 days; for pest or weed control at 15.625 g/ha: 15.625 g ai/ha; for pest or weed control at 15.625 g/ha / pest or weed control at 250 g/ha: read-out: Velvetleaf damage rating (100=total damage to plant; 0=no damage to plant); for pest or weed control at 62.5 g/ha: 62.5 g ai/ha, 100=total damage to plant, 0=no damage to plant, read-out: plant damage rating, Velvetleaf; for pest or weed control at 250 g/ha: 250 g ai/ha
Outline: as §1

[7] = system: barnyardgrass (Echinochloa crus-galli); experiment: Test G Post-Emergence Protocol; conditions: Echinochloa crus-galli, post-emergence, 312 h; for pest or weed control at 15.625 g/ha: 15.625 g ai/ha, evaluated after 13 days (100=total damage to plant; 0=no damage to plant), read-out: Barnyardgrass damage rating; for pest or weed control at 62.5 g/ha: 62.5 g ai/ha, read-out: Barnyardgrass damage rating (100=total damage to plant; 0=no damage to plant); for pest or weed control at 62.5 g/ha / pest or weed control at 250 g/ha: evaluated after 13 days; for pest or weed control at 250 g/ha: 250 g ai/ha, read-out: damage to plant, Barnyardgrass (100=total damage to plant; 0=no damage to plant)
Outline: (§2)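 Pot-grown seedlings, 8 days old, raised in a glasshouse at 24/16 °C day/night with 14 h light and 65% humidity, were sprayed post-emergence with test compound in acetone/water (50:50) plus 0.5% Tween 20 at 15.625, 62.5 or 250 g/ha. Damage was scored visually 13 days later on a 0–100 scale (100 = total damage).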

[8] = system: corn (Zea mays); experiment: Test G Post-Emergence Protocol; conditions: Zea mays, post-emergence, 312 h; for plant injury at 15.625 g/ha: 15.625 g ai/ha, evaluated after 13 days (100=total damage to plant; 0=no damage to plant), read-out: Corn damage rating; for plant injury at 62.5 g/ha: 62.5 g ai/ha, read-out: Corn damage rating (100=total damage to plant; 0=no damage to plant); for plant injury at 62.5 g/ha / plant injury at 250 g/ha: evaluated after 13 days; for plant injury at 250 g/ha: 250 g ai/ha, read-out: damage to plant, Corn (100=total damage to plant; 0=no damage to plant)
Outline: as §2

[9] = system: giant foxtail (Setaria faberi); experiment: Test G Post-Emergence Protocol; conditions: Setaria faberi, post-emergence, 312 h; for pest or weed control at 15.625 g/ha: 15.625 g ai/ha, evaluated after 13 days (100=total damage to plant; 0=no damage to plant), read-out: Foxtail, Giant damage rating; for pest or weed control at 62.5 g/ha: 62.5 g ai/ha, read-out: Foxtail, Giant damage rating (100=total damage to plant; 0=no damage to plant); for pest or weed control at 62.5 g/ha / pest or weed control at 250 g/ha: evaluated after 13 days; for pest or weed control at 250 g/ha: 250 g ai/ha, read-out: damage to plant, Foxtail, Giant (100=total damage to plant; 0=no damage to plant)
Outline: as §2

[10] = system: ivy-leaved morning glory (Ipomoea hederacea); experiment: Test G Post-Emergence Protocol; conditions: Ipomoea, post-emergence, 312 h; for pest or weed control at 15.625 g/ha: 15.625 g ai/ha, evaluated after 13 days (100=total damage to plant; 0=no damage to plant), read-out: Morningglory, Ivy-leaved damage rating; for pest or weed control at 62.5 g/ha: 62.5 g ai/ha, read-out: Morningglory, Ivy-leaved damage rating (100=total damage to plant; 0=no damage to plant); for pest or weed control at 62.5 g/ha / pest or weed control at 250 g/ha: evaluated after 13 days; for pest or weed control at 250 g/ha: 250 g ai/ha, read-out: damage to plant, Morningglory, Ivy-leaved (100=total damage to plant; 0=no damage to plant)
Outline: as §2

[11] = system: redroot pigweed (Amaranthus retroflexus); experiment: Test G Post-Emergence Protocol; conditions: Amaranthus retroflexus, post-emergence, 312 h; for pest or weed control at 15.625 g/ha: 15.625 g ai/ha, evaluated after 13 days (100=total damage to plant; 0=no damage to plant), read-out: Pigweed, Redroot damage rating; for pest or weed control at 62.5 g/ha: 62.5 g ai/ha, read-out: Pigweed, Redroot damage rating (100=total damage to plant; 0=no damage to plant); for pest or weed control at 62.5 g/ha / pest or weed control at 250 g/ha: evaluated after 13 days; for pest or weed control at 250 g/ha: 250 g ai/ha, read-out: damage to plant, Pigweed, Redroot (100=total damage to plant; 0=no damage to plant)
Outline: as §2

[12] = system: velvetleaf (Abutilon theophrasti); experiment: Test G Post-Emergence Protocol; conditions: Abutilon theophrasti, post-emergence, 312 h; for pest or weed control at 15.625 g/ha: 15.625 g ai/ha, evaluated after 13 days (100=total damage to plant; 0=no damage to plant), read-out: Velvetleaf damage rating; for pest or weed control at 62.5 g/ha: 62.5 g ai/ha, read-out: Velvetleaf damage rating (100=total damage to plant; 0=no damage to plant); for pest or weed control at 62.5 g/ha / pest or weed control at 250 g/ha: evaluated after 13 days; for pest or weed control at 250 g/ha: 250 g ai/ha, read-out: damage to plant, Velvetleaf (100=total damage to plant; 0=no damage to plant)
Outline: as §2

Compound | pest or weed control at 15.625 g/ha [1] | pest or weed control at 62.5 g/ha [1] | pest or weed control at 250 g/ha [1] | plant injury at 15.625 g/ha [2] | plant injury at 62.5 g/ha [2] | plant injury at 250 g/ha [2] | pest or weed control at 15.625 g/ha [3] | pest or weed control at 62.5 g/ha [3] | pest or weed control at 250 g/ha [3] | pest or weed control at 15.625 g/ha [4] | pest or weed control at 62.5 g/ha [4] | pest or weed control at 250 g/ha [4] | pest or weed control at 15.625 g/ha [5] | pest or weed control at 62.5 g/ha [5] | pest or weed control at 250 g/ha [5] | pest or weed control at 15.625 g/ha [6] | pest or weed control at 62.5 g/ha [6] | pest or weed control at 250 g/ha [6] | pest or weed control at 15.625 g/ha [7] | pest or weed control at 62.5 g/ha [7] | other results
CN1C[C@@H](c2ccc(C(F)(F)F)nc2)[C@H](C(=O)Nc2ccccc2F)C1=O (racemic) [Compound 1419] | 10% | 80% | 90% | 0% | 0% | 50% | 10% | 80% | 90% | 0% | 0% | 60% | 0% | 0% | 70% | 0% | 0% | 0% | 30% | 50% | pest or weed control at 250 g/ha [7]: 60%; plant injury at 15.625 g/ha [8]: 10%; plant injury at 62.5 g/ha [8]: 10%; plant injury at 250 g/ha [8]: 20%; pest or weed control at 15.625 g/ha [9]: 10%; pest or weed control at 62.5 g/ha [9]: 60%; pest or weed control at 250 g/ha [9]: 70%; pest or weed control at 15.625 g/ha [10]: 0%; pest or weed control at 62.5 g/ha [10]: 20%; pest or weed control at 250 g/ha [10]: 10%; pest or weed control at 15.625 g/ha [11]: 10%; pest or weed control at 62.5 g/ha [11]: 20%; pest or weed control at 250 g/ha [11]: 30%; pest or weed control at 15.625 g/ha [12]: 10%; pest or weed control at 62.5 g/ha [12]: 10%; pest or weed control at 250 g/ha [12]: 0%
Cc1c(NC(=O)[C@H]2C(=O)N(C)C[C@@H]2c2ccc(C(F)(F)F)cc2)cccc1C(F)(F)F (racemic) [Compound 1424] | 0% | 10% | 50% | 0% | 0% | 0% | 0% | 40% | 70% | 0% | 0% | 0% | 0% | 0% | 0% | 0% | 0% | 0% | 0% | 0% | pest or weed control at 250 g/ha [7]: 10%; plant injury at 15.625 g/ha [8]: 0%; plant injury at 62.5 g/ha [8]: 0%; plant injury at 250 g/ha [8]: 10%; pest or weed control at 15.625 g/ha [9]: 0%; pest or weed control at 62.5 g/ha [9]: 0%; pest or weed control at 250 g/ha [9]: 20%; pest or weed control at 15.625 g/ha [10]: 0%; pest or weed control at 62.5 g/ha [10]: 0%; pest or weed control at 250 g/ha [10]: 0%; pest or weed control at 15.625 g/ha [11]: 10%; pest or weed control at 62.5 g/ha [11]: 20%; pest or weed control at 250 g/ha [11]: 20%; pest or weed control at 15.625 g/ha [12]: 0%; pest or weed control at 62.5 g/ha [12]: 0%; pest or weed control at 250 g/ha [12]: 0%
C=CCc1c(Cl)cccc1NC(=O)[C@H]1C(=O)N(C)C[C@H]1c1ccc(C(F)(F)F)cc1 (racemic) [Compound 1439] | 0% | 0% | 40% | 0% | 0% | 0% | 0% | 0% | 50% | 0% | 0% | 0% | 0% | 0% | 0% | 0% | 0% | 0% | 0% | 0% | pest or weed control at 250 g/ha [7]: 10%; plant injury at 15.625 g/ha [8]: 10%; plant injury at 62.5 g/ha [8]: 10%; plant injury at 250 g/ha [8]: 10%; pest or weed control at 15.625 g/ha [9]: 0%; pest or weed control at 62.5 g/ha [9]: 20%; pest or weed control at 250 g/ha [9]: 60%; pest or weed control at 15.625 g/ha [10]: 0%; pest or weed control at 62.5 g/ha [10]: 0%; pest or weed control at 250 g/ha [10]: 0%; pest or weed control at 15.625 g/ha [11]: 0%; pest or weed control at 62.5 g/ha [11]: 0%; pest or weed control at 250 g/ha [11]: 40%; pest or weed control at 15.625 g/ha [12]: 0%; pest or weed control at 62.5 g/ha [12]: 0%; pest or weed control at 250 g/ha [12]: 0%
